Assay results: US20150342960A1, “DRUG COMBINATIONS FOR TREATMENT OF MELANOMA AND OTHER CANCERS” (Memorial Sloan Kettering Cancer Center, priority 2014, published 2015)
Like-named read-outs stand apart in the source and are kept apart here.

What was measured:
Format in all cases: cell-based
[1] = tested on: AKTpS473; test: Western blot IC40 of downstream effector readout; details: 40% inhibition of AKTpS473, Western Blot
Procedure: (§1) In total, cells were treated with 89 unique perturbations (Table 3). In paired combinations, each drug concentration was selected to inhibit the readout for the presumed target or the downstream effectors by 40% (IC40) as determined by Western Blot experiments. In single agent perturbations, each drug is applied at two different concentrations, IC40 and 2×IC40.

[2] = tested on: c-Myc; test: c-Myc level by reverse phase protein arrays (RPPA); details: Skmel133 cells, average of three replicates
Procedure: Proteomic response profiles to perturbations were measured using reverse phase protein arrays. The cells were lysed 24 hours after drug treatment. Three biological replicates were spotted for each sample (e.g., drug condition) on RPPA slides. Each slide was stained with the respective Ab and 138 proteomic entities (total or phosho levels) and were profiled using specific Abs with the RPPA (Table 3).
FIG. 14 depicts changes in c-Myc levels in response to perturbations in Skmel133 cells as measured in RPPA experiments. Each data point was log normalized with respect to the c-Myc level in unperturbed condition. c-Myc level was highest in the presence of CDK4i. Various drug combinations that included STAT3 and mTOR inhibitors follow CDK4i combinations. cMyc level was lowest when cells were perturbed with MEK, BRAF, SRC, PKC and HDAC inhibitors, respectively. Each data-point is the average of RPPA readouts from three replicates.

[3] = tested on: P27/Kip1; test: Western blot IC40 of downstream effector readout; details: IC40 on P27/Kip1 readout
Procedure: as §1

[4] = tested on: SkMel133 cells; test: Cell cycle progression, flow cytometry; details: for cells in G1 stage: 24 hours after treatment, 39% when not treated
Procedure: All phenotypic measurements were made in perturbation conditions identical to those in proteomic measurements. […] The percentage of cells in the G1, G2/M, and S phases and sub-G1 fraction were recorded based on the respective distribution of DNA content in each phase.

[5] = tested on: BRD4; test: Western blot of BRD4 level; details: 24 hours after JQ1 treatment
Procedure: FIGS. 6A-6E illustrate the combined targeting of c-Myc with MEK and BRAF leads to synergistic response in melanoma cells. […] The leftward shift of isocurves implies synergistic interactions between the applied perturbations. u denotes strength of in silico perturbations. […] The BRD4 level is unchanged in response to JQ1 treatment. […] C-Myc expression is targeted with BRD4 inhibitor, JQ1. […] Cell viability is measured using the resazurin assay. […] The combination index (CI) calculated using the drug dose response curves quantifies the drug interactions between JQ1, MEKi and RAFi (left panel). CI for a given level of inhibition is a measure of the fractional shift between the combination doses (C1 and C2) and the single agent's inhibitory concentration (Cx,1, Cx,2). It is formulated as CI=(C1/Cx,1)[…](C2/Cx,2). Amax is the response of melanoma cells to JQ1, MEKi and RAFi at highest doses applied (right panel). 1-Amax is the fraction of cells alive in response to highest drug dose normalized with respect to the non-drug treated condition. […] 86% of cells are in G1 state 48 hours after JQ1 treatment, while 42% of the cells are in G1 state before drug treatment (error bars: ±SEM in 3 biological replicates).

[6] = tested on: SkMel133 cells; test: Cell viability, resazurin assay; details: for Emax: read-out: maximal effect level (Amax, response to the drugs at highest doses)
Procedure: RAFi resistant melanoma cell line SkMel133 was used in all perturbation experiments. SkMel133 cells were perturbed with 12 targeted drugs applied as single agents or in paired combinations.
All phenotypic measurements were made in perturbation conditions identical to those in proteomic measurements. Cell viability and cell cycle progression were measured 72 hours after drug treatment using the Resazurin assay and flow cytometry analysis respectively. The percentage of cells in the G1, G2/M, and S phases and sub-G1 fraction were recorded based on the respective distribution of DNA content in each phase.

[7] = tested on: c-Myc; test: Western blot of c-Myc expression; details: SkMel133, western blot, 24 hours after drug treatment
Text: First, it was postulated whether c-Myc levels in SkMel133 cells could be targeted using JQ1. […] Therefore, total c-Myc levels are targeted using JQ1, either as a single agent or in combination with inhibitors of the RAF/MEK/ERK pathway.

[8] = tested on: SkMel133 cells; test: Apoptotic response of melanoma cells; details: 48 hours after treatment; 3% in unperturbed cells
Procedure: Finally, the cell cycle progression and apoptotic response of melanoma cells to JQ1 were measured. JQ1 (500 nM) induces a 50% increase in cells at G1-phase compared to the unperturbed cells (FIG. 8). […] More specifically, FIG. 8 depicts cell cycle arrest response of melanoma cells to JQ1 and MEKi combination. 51% and 88% of cells are in G1 stage 24 hours after JQ1 and MEKi treatment, respectively. JQ1+MEKi combination has an increased effect on G1 cell cycle arrest (G1=92%). 39% of cells are in G1 when they are not treated with drugs (error bars in right panel: ±SE in 3 biological replicates).

[9] = tested on: 4EBP1pS65; test: Western blot IC40 of downstream effector readout; details: 40% inhibition of 4EBP1pS65, Western Blot
Procedure: as §1

[10] = tested on: GSK3pS21; test: Western blot IC40 of downstream effector readout; details: 40% inhibition of GSK3pS21, Western Blot
Procedure: as §1

[11] = tested on: MAPK1pT202; test: Western blot IC40 of downstream effector readout; details: 40% inhibition of MAPK1pT202, Western Blot
Procedure: as §1

[12] = tested on: S6pS240; test: Western blot IC40 of downstream effector readout; details: 40% inhibition of S6pS240, Western Blot
Procedure: as §1

[13] = tested on: STAT3pY705; test: Western blot IC40 of downstream effector readout; details: 40% inhibition of STAT3pY705, Western Blot
Procedure: as §1

[14] = SkMel133, highest doses applied, normalized to non-drug treated condition

## O=c1[nH]c2ccccc2n1C1CCN(Cc2ccc(-c3nc4cc5nc[nH]c5cc4nc3-c3ccccc3)cc2)CC1 [AKTi 1/2]
[1]
  Dose 1 (IC40 of downstream effector readout): 5.000 nM

## O=C(CCCCCCSc1ccc2ccccc2c1)NO [HNHA]
[2]
  c-Myc level relative to unperturbed condition: lowest
[3]
  Dose 1 (IC40 of downstream effector readout): 6,000 nM

## Cc1sc2c(c1C)C(c1ccc(Cl)cc1)=N[C@@H](CC(=O)OC(C)(C)C)c1nnc(C)n1-2 [JQ1]
[4]
  cells in G1 stage: 51%
[4]; 48 hours after treatment, 42% before drug treatment
  cells in G1 state: 86%
[4]; JQ1 500 nM
  increase in cells at G1-phase compared to the unperturbed cells: 50%
[5]
  BRD4 level: unchanged
[6]; SkMel133, combined with 5 nM MEK inhibitor, read-out: concentration of JQ1 reducing viability by 50%
  IC50: 100 nM
[6]; [14]
  maximal effect level (Amax, response to the drugs at highest doses): 10%
[6]; SkMel133, single agent, read-out: cell viability IC50
  IC50: 200 nM
[7]
  c-Myc expression: reduced
[8]
  apoptosis: 11%

## COc1ccc(C2=NC(c3ccc(Cl)cc3)C(c3ccc(Cl)cc3)N2C(=O)N2CCNC(=O)C2)c(OC(C)C)c1 (stereo not shown) [Nutlin]
[9]
  Dose 1 (IC40 of downstream effector readout): 3,000 nM

## CC(C)(C)c1nc2c3cc[nH]c(=O)c3c3cc(F)ccc3c2[nH]1 [P6]
[10]
  Dose 1 (IC40 of downstream effector readout): 20 nM

## O=C(NOC[C@H](O)CO)c1ccc(F)c(F)c1Nc1ccc(I)cc1F [PD0325901]
[4]
  cells in G1 stage: 88%
[2]
  c-Myc level relative to unperturbed condition: lowest
[11]
  Dose 1 (IC40 of downstream effector readout): 1.5 nM
[6]; [14]
  Emax: 13%

## CCCS(=O)(=O)Nc1ccc(F)c(C(=O)c2c[nH]c3ncc(Cl)cc23)c1F [PLX4720]
[2]
  c-Myc level relative to unperturbed condition: lowest
[11]
  Dose 1 (IC40 of downstream effector readout): 60 nM
[6]; RAFi resistant SkMel133 cells, single agent, read-out: IC50 for single agent
  IC50: > 1000 nM
[6]; SkMel133, combined with JQ1 (120 nM), read-out: concentration of RAFi reducing cell viability by 50%
  IC50: 120 nM
[6]; [14]
  Emax: 12%

## Cn1cc(C2=C(c3cn(CCCN)c4ccccc34)C(=O)NC2=O)c2ccccc21 [RO-31-7549]
[2]
  c-Myc level relative to unperturbed condition: lowest
[12]
  Dose 1 (IC40 of downstream effector readout): 3500 nM

## O=[N+]([O-])c1ccc2c(c1)S(=O)(=O)C=C2 [Stattic]
[13]
  Dose 1 (IC40 of downstream effector readout): 600 nM

## CO[C@H]1C[C@@H]2CC[C@@H](C)[C@@](O)(O2)C(=O)C(=O)N2CCCC[C@H]2C(=O)O[C@H]([C@H](C)C[C@@H]2CC[C@@H](OC(=O)C(C)(CO)CO)[C@H](OC)C2)CC(=O)[C@H](C)/C=C(\C)[C@@H](O)[C@@H](OC)C(=O)[C@H](C)C[C@H](C)/C=C/C=C/C=C/1C [Temsirolimus]
[12]
  Dose 1 (IC40 of downstream effector readout): 0.3 nM

## FC(F)c1nc2ccccc2n1-c1nc(N2CCOCC2)nc(N2CCOCC2)n1 [ZSTK474]
[1]
  Dose 1 (IC40 of downstream effector readout): 600 nM
